US20240398899A1 (priority 2021, published 2024)

Columns and labels:
Assay in all cases: Alzheimer's biomarker multiplex analysis, scopolamine-damaged SH-SY5Y
Type in all cases: cell-based, human
Details in all cases: Scopolamine (4 mM)
b-NGF = tested on: b-NGF
Protocol: (§1) After overnight incubation as in the previous examples, cells were treated with recombinant lectin protein having SEQ ID NO: 1 at different concentrations ranging from 0.001 μg/ml-1 μg/ml for 24 h for Parkinson disease and 0.01 μg/ml-25 μg/ml for 24 h for Alzheimer's disease. • Parkinson Disease: After 24 h of pre-treatment with recombinant lectin protein having SEQ ID NO: 1, cells were exposed (MPP+) for another 24 h. Cells treated with MPP+Iodide were included as Control. […] The cells treated with Galantamine were included as positive Control.
(§2) The levels of markers were determined by multiplex analysis as: Cell culture supernatants were diluted (1:2) with Calibrator Diluent. 50 μl of standard or sample was added per well. 50 μl of the microparticle cocktail was added to each well of the microplate and covered with a foil plate sealer. The plate was incubated for 2 hours at room temperature on a horizontal orbital microplate shaker. The plate was washed using a magnetic device designed to accommodate a microplate. Washing was done by applying the magnet to the bottom of the microplate, allowing 1 minute before removing the liquid, filling each well with wash buffer (100 μl) and allowing 1 minute before removing the liquid again. 50 μl of diluted Biotin-Antibody Cocktail was added to each well. Covered the plate with a foil plate sealer and incubated for 1 hour at room temperature on the shaker. Repeated the wash step. 50 μl of diluted Streptavidin-PE was added to each well. The plate was securely covered with a foil plate sealer and incubated for 30 minutes at room temperature on the shaker. Repeated the wash step. The microparticles were resuspended by adding 100 μl of Wash Buffer to each well. The plate was incubated for 2 minutes on the shaker and read within 90 minutes using Magpix® multiplex machine. Levels of biomarkers for Parkinson's and Alzheimer's disease were estimated using Magpix® multiplex machine.
(§3) For Alzheimer's disease the percent modulation in each sample was determined as follows: […]

MPO = tested on: MPO
Protocol: as §1, §2, §3

RAGE = tested on: RAGE
Protocol: as §1, §2, §3

COc1ccc2c3c1O[C@H]1C[C@@H](O)C=C[C@@]31CCN(C)C2 [Galantamine, reference compound]
% Change of Biomarkers markers (wrt Control) b-NGF (b-NGF; 1 μM): 9.1% | % Change of Biomarkers markers (wrt Control) b-NGF (b-NGF; 10 μM): 0% | % Change of Biomarkers markers (wrt Control) b-NGF (b-NGF; 100 μM): −9% | % Change of Biomarkers markers (wrt Control) MPO (MPO; 1 μM): −64% | % Change of Biomarkers markers (wrt Control) MPO (MPO; 10 μM): −31.2% | % Change of Biomarkers markers (wrt Control) MPO (MPO; 100 μM): −45.9% | % Change of Biomarkers markers (wrt Control) RAGE (RAGE; 1 μM): 0% | % Change of Biomarkers markers (wrt Control) RAGE (RAGE; 10 μM): 0% | % Change of Biomarkers markers (wrt Control) RAGE (RAGE; 100 μM): −38.7%
